Results on one compound are retold here after patent US9572785B2, “DP2 antagonist and uses thereof” (Brickell Biotech, Inc., priority 2009, dated 2017).

Converted amounts (≈) assume the structure as drawn. Where two headings read alike, the source gives them in different places.

The nature of series [1]: Properties of the amorphous phase. In kind it is physicochemical.
Series [2] is described as follows: clinical. The note with it: human.
Series [3] can be described thus: physchem. The following applies: water, 25 °C, pH 6.1, water, thermodynamic from solid.
In series [4] the target is T1, guinea pig DP2 receptor (Cavia porcellus, UniProt H0W1T0).
T1 sequence (H0W1T0 1-391): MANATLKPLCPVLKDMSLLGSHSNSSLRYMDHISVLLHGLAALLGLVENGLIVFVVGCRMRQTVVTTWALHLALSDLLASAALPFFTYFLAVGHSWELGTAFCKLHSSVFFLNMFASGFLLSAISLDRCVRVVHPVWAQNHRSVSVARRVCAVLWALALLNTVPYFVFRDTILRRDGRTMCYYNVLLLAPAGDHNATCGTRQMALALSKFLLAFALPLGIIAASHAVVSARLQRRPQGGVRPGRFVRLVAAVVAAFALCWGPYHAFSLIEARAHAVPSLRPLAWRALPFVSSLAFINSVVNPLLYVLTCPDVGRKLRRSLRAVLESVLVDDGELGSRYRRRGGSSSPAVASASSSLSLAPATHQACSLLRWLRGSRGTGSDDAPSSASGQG
Briefly: DP2 radioligand membrane binding assay, guinea pig. The procedure:
(§1) HEK293 cells stably expressing recombinant human DP2 are resuspended in 10 mM Hepes, 7.4 containing 1 mM DTT, lysed and centrifuged at 75,000×g to pellet the membranes. The membranes are resuspended in 10 mM Hepes, 7.4 containing 1 mM DTT and 10% glycerol to approximately 5 mg protein/ml. […] The reactions are terminated by rapid filtration through Whatman GF/C glass fibre filter plates. […] After harvesting, the filter plates are washed 3 times with 1 ml cold Wash Buffer then dried. Scintillant is then added to the plates and the radioactivity retained on the filters is determined on a Packard TopCount (Perkin Elmer). Specific binding is determined as total radioactive binding minus non-specific binding in the presence of 10 μM PGD2. IC50s were determined using GraphPad prism analysis of drug titration curves. Mouse, rat and guinea pig DP2 receptors were also investigated.

The target in series [5] is T2, rat DP2 (Rattus norvegicus, UniProt Q6XKD3).
T2 sequence (Q6XKD3 1-403): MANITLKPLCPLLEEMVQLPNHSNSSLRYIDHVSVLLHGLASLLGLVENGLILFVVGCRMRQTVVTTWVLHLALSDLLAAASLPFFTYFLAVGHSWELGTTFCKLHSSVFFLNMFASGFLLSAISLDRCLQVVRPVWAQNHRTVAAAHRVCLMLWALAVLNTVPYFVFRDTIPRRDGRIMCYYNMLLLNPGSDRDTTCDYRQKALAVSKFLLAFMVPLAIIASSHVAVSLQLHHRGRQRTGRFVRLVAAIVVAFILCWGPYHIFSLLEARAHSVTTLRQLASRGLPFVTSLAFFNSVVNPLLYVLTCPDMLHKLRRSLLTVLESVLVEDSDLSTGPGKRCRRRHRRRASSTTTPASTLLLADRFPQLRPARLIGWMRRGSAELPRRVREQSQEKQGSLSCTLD
In words: DP2 radioligand membrane binding assay, rat. The following applies: read-out: average IC50, inhibition of radiolabeled PGD2 binding. The procedure:
as §1

What is called half-life is the time needed for the level to fall by half in the phase considered. High values mean slow decline, low ones rapid decline. For orientation: AUC(0-t) means exposure summed from dosing to a finite time, without extrapolation to infinity. A lower AUC(0-t) goes with low exposure. For orientation: Cmax means the peak of the concentration-time curve. A word on the solubility: it is the dissolved amount per volume that the medium holds. The IC50 is the concentration needed to halve the response being measured. In the case of `CCN(Cc1cc(C(F)(F)F)ccc1-c1cc(CC(=O)O)ccc1OC)C(=O)NCc1ccccc1` [Compound 1, [2′-(3-benzyl-1-ethyl-ureidomethyl)-6-methoxy-4′-trifluoromethyl-biphenyl-3-yl]-acetic acid], the “solubility in water” value in series [1] is on record as “sparingly soluble in water”. Moreover, in series [1] (from 0% to 90% relative humidity), the “hygroscopicity, weight change” value is listed as 1.7%. Also, the half-life in series [2] (in vivo) is 6.6 to 11 h; in series [2] (plasma, po, 30 mg) it was 6.6 h; in series [2] (plasma, po, 100 mg) it was 8.1 h; in series [2] (plasma, po, 300 mg), 7 h. The AUC(0-t) stood at 32.3 ng·h/mL in series [2] (plasma, oral, 30 mg); 24.1 ng·h/mL in series [2] (plasma, po, 30 mg); 118 ng·h/mL in series [2] (plasma, po, 100 mg); 1420 ng·h/mL in series [2] (plasma, po, 300 mg). Besides, the Cmax amounted to 16 ng/mL in series [2] (plasma, oral, 30 mg); 11.2 ng/mL in series [2] (plasma, po, 30 mg); 81 ng/mL in series [2] (plasma, po, 100 mg); 1400 ng/mL in series [2] (plasma, po, 300 mg). Moreover, the solubility at 24 h in series [3] came out at 210 µg/mL (≈ 420 µM). Also, the IC50 was determined as 4.9 nM in series [4] (average IC50, inhibition of radiolabeled PGD2 binding, guinea pig DP2, membrane binding); 22.9 nM in series [4] (guinea pig DP2 receptor, in the presence of 0.2% guinea pig serum albumin, read-out: IC50, radioligand membrane binding); 10.4 nM in series [5].
